The values that follow come from US10174033B2, “N6-substituted adenosine derivatives and N6-substituted adenine derivatives and uses thereof” (INSTITUTE OF MATERIA MEDICA, CHINESE ACADEMY OF MEDICAL …, priority 2009, dated 2019).

One assay concerns mice. Kind of assay: Sub-threshold hypnotic dose sodium pentobarbital induced sleeping test. In kind it is in vivo. The settings on record: intraperitoneal, 30 min before sub-threshold sodium pentobarbital (22 mg/kg ip). The protocol: N^6-substituted adenosine derivatives and/or N^6-substituted adenine derivatives potentiated sodium pentobarbital-induced sleep in mice
Name of Experiment: Sub-threshold hypnotic dose sodium pentobarbital induced sleeping test
Method of Experiment: Mice (n=7-10) were pretreated with test compound or vehicle, after 30 min, a maximal sub-threshold hypnotic dose of sodium pentobarbital (22 mg/kg) was given intraperitoneally (ip). (On some condition, the sub-threshold dosage of sodium pentobarbital should be optimized to the maximum dose, at which the rate of sleep onset of vehicle group is less than 10%). […] Following sodium pentobarbital injection, each mouse was observed 15 min for onset of sleep. The percentage of sleep onset was calculated as: (number of animals falling asleep/total number of animals)×100%.

The next assay relates to male ICR-mice. Kind of assay: Potentiation of sodium pentobarbital sleeping time test. It is filed as in vivo.
Assay [1] can be described thus: bioassay-guided fractionation, sedative and hypnotic effects. The following applies: compound isolated from Gastrodia elata and Gymnadenia conopsea, result in words.
The subject of another assay is PC12 cell. The following applies: result in words; cited from earlier work.
The target of the next assay is adenosine A2A receptor (Homo sapiens, UniProt P29274). The following applies: result in words; cited from earlier work.
The mark [2] stands for this setting: intraperitoneal, 1 mg/kg, 38 mg/kg sodium pentobarbital 30 min later.
Where [3] appears, read: oral, 5 mg/kg, 38 mg/kg sodium pentobarbital 60 min later.
Setting [4] is: intraperitoneal, 5 mg/kg, 38 mg/kg sodium pentobarbital 30 min later.
The mark [5] stands for this setting: oral, 4 mg/kg, 38 mg/kg sodium pentobarbital 60 min later.

adenosine A2A receptor, sequence (P29274 whole entry): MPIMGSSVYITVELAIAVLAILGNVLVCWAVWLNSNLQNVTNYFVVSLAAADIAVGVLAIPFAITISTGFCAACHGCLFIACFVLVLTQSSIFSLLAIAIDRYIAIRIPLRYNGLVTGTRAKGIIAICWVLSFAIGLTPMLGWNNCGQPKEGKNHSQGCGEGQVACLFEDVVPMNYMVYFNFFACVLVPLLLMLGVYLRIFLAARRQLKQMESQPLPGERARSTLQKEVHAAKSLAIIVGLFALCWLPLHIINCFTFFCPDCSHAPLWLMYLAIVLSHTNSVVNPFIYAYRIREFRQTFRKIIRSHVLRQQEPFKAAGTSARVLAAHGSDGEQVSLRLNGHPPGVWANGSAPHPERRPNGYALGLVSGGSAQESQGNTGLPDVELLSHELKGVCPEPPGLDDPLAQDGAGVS

`OC[C@H]1O[C@@H](n2cnc3c(NCc4ccc(O)cc4)ncnc32)[C@H](O)[C@@H]1O` [Example 2, N^6-(p-hydroxybenzyl)-adenosine]: in the assay with mice (1 mg/kg), the “Sleep rate (%)” value came out at 63%. For the same compound, in the assay on male ICR-mice (oral, 1 mg/kg, 38 mg/kg sodium pentobarbital 60 min later), the “Sleep prolonging rate (%)” value is listed as 90%. For the same compound, in assay [1], the “sedative and hypnotic effects” value is “significant sedative and hypnotic effects”. Further, the “preventing PC12 cell apoptosis” value with PC12 cell is on record as “effective in preventing PC12 cell apoptosis”. At adenosine A2A receptor, the “binding to adenosine A2A receptor” value is given as “binding to adenosine A2A receptor”.
As for `Nc1cccc(CNc2ncnc3c2ncn3[C@@H]2O[C@H](CO)[C@@H](O)[C@H]2O)c1` [Example 7, N^6-(m-aminobenzyl)-adenosine], the “Sleep rate (%)” value in the assay on mice (1 mg/kg) is 100%. Also, the “Sleep prolonging rate (%)” value in the assay with male ICR-mice (setting [2]) is recorded as 101%; in the assay with male ICR-mice (setting [3]) it was 50%.
Take `O=[N+]([O-])c1ccc(CNc2ncnc3c2ncn3[C@@H]2O[C@H](CO)[C@@H](O)[C@H]2O)cc1` [Example 8, N^6-(p-nitrobenzyl)-adenosine]: the “Sleep rate (%)” value with mice (1 mg/kg) is on record as 63%. Besides, the “Sleep prolonging rate (%)” value is given as 16% in the assay with male ICR-mice (setting [2]) and 29% in the assay with male ICR-mice (setting [3]).
For the compound `OC[C@H]1O[C@@H](n2cnc3c(NCc4ccc(F)cc4)ncnc32)[C@H](O)[C@@H]1O` [Example 11, N^6-(p-fluorobenzyl)-adenosine], in the assay on mice (5 mg/kg), the “Sleep rate (%)” value came to 71%. The “Sleep prolonging rate (%)” value in the assay on male ICR-mice (setting [4]) was found to be 73%.
Consider `OC[C@H]1O[C@@H](n2cnc3c(NCc4ccc(OC(F)(F)F)cc4)ncnc32)[C@H](O)[C@@H]1O` [Example 12, N^6-(p-trifluoromethoxybenzyl)-adenosine], for which the “Sleep rate (%)” value with mice (5 mg/kg) stood at 43%. In addition, the “Sleep prolonging rate (%)” value with male ICR-mice (setting [4]) was 44%.
The matching figures for `OC[C@H]1O[C@@H](n2cnc3c(NCc4ccc(C(F)(F)F)cc4)ncnc32)[C@H](O)[C@@H]1O` [Example 13, N^6-(p-trifluoromethylbenzyl)-adenosine]: 57% and 23%.
Take `OC[C@H]1O[C@@H](n2cnc3c(N4CCN(c5ccccc5)CC4)ncnc32)C(O)C1O` (stereo partly drawn) [Example 16]: in the assay on mice (5 mg/kg), the “Sleep rate (%)” value came to 50%. Besides, the “Sleep prolonging rate (%)” value with male ICR-mice (setting [4]) was found to be 34%.
For the compound `OC[C@H]1O[C@@H](n2cnc3c(NCc4ccc(O)c(O)c4)ncnc32)[C@H](O)[C@@H]1O` [Example 22, N^6-(3,4-dihydroxybenzyl)-adenosine], the “Sleep rate (%)” value in the assay with mice (1 mg/kg) came to 87%; in the assay on mice (5 mg/kg) it was 100%. Further, the “Sleep prolonging rate (%)” value in the assay on male ICR-mice (setting [4]) came out at 32%; in the assay on male ICR-mice (setting [5]), 74%.
`COc1cc(CNc2ncnc3c2ncn3[C@@H]2O[C@H](CO)[C@@H](O)[C@H]2O)ccc1O` [Example 23, N^6-(3-methoxy-4-hydroxybenzyl)-adenosine]: the “Sleep rate (%)” value in the assay with mice (1 mg/kg) was determined as 100%. Also, the “Sleep prolonging rate (%)” value in the assay with male ICR-mice (setting [5]) turned out to be 87%.
Consider `OC[C@H]1O[C@@H](n2cnc3c(NCc4ccc5c(c4)OCO5)ncnc32)[C@H](O)[C@@H]1O` [Example 31, N^6-(3,4-methylenedioxybenzyl)-adenosine], for which, in the assay with mice (5 mg/kg), the “Sleep rate (%)” value was found to be 100%. For the same compound, the “Sleep prolonging rate (%)” value in the assay with male ICR-mice (setting [4]) came to 175%.
`COc1cc(CNc2ncnc3c2ncn3[C@@H]2O[C@H](CO)C(O)C2O)cc(OC)c1O` (stereo partly drawn) [Example 36, N^6-(4-hydroxy-3,5-dimethxoybenzyl)-adenosine]: in the assay with mice (5 mg/kg), the “Sleep rate (%)” value is reported as 86%. The “Sleep prolonging rate (%)” value came to 336% in the assay on male ICR-mice (setting [4]) and 121% in the assay on male ICR-mice (setting [3]).
For the compound `COc1cc(CCNc2ncnc3c2ncn3[C@@H]2O[C@H](CO)[C@@H](O)[C@H]2O)ccc1O` [Example 39, N^6-[(3-methoxy-4-hydroxyphenyl)-ethyl]-adenosine], the “Sleep rate (%)” value in the assay with mice (1 mg/kg) is given as 88%. Further, the “Sleep prolonging rate (%)” value in the assay with male ICR-mice (setting [2]) amounted to 13%.
Consider `COc1ccc(CCNc2ncnc3c2ncn3[C@@H]2O[C@H](CO)[C@@H](O)[C@H]2O)cc1O` [Example 40, N^6-[(3-hydroxy-4-methoxyphenyl)-ethyl]-adenosine], for which the “Sleep rate (%)” value with mice (1 mg/kg) stood at 50%. In addition, the “Sleep prolonging rate (%)” value with male ICR-mice (setting [2]) is recorded as 1%.
Take `OC[C@H]1O[C@@H](n2cnc3c(NCCc4c[nH]cn4)ncnc32)[C@H](O)[C@@H]1O` [Example 43, N^6-[(1H-imidazole-4-yl)-ethyl]-adenosine]: in the assay with mice (1 mg/kg), the “Sleep rate (%)” value is recorded as 88%. In the assay with male ICR-mice (setting [2]), the “Sleep prolonging rate (%)” value turned out to be 43%.
In the case of `OC[C@H]1O[C@@H](n2cnc3c(NCCc4c[nH]c5ccccc45)ncnc32)[C@H](O)[C@@H]1O` [Example 44, N^6-[(1H-Indole-3-yl)-ethyl]-adenosine], in the assay on mice (5 mg/kg), the “Sleep rate (%)” value was 86%. For the same compound, the figures for the “Sleep prolonging rate (%)” value with male ICR-mice (setting [4]) and in the assay on male ICR-mice (setting [3]) were 147% and 78%, respectively.
On to `O=C(O)[C@@H](Cc1ccccc1)Nc1ncnc2c1ncn2[C@@H]1O[C@H](CO)C(O)C1O` (stereo partly drawn) [Example 103, N-(6-adenosine)-(D)-phenylalanine], for which the “Sleep rate (%)” value with mice (5 mg/kg) is given as 17%. In addition, in the assay on male ICR-mice (setting [4]), the “Sleep prolonging rate (%)” value was 19%.
For the compound `O=C(O)[C@@H](Cc1ccc(O)cc1)Nc1ncnc2c1ncn2[C@@H]1O[C@H](CO)C(O)C1O` (stereo partly drawn) [Example 106, N-(6-adenosine)-(D)-tyrosine], the “Sleep rate (%)” value in the assay with mice (5 mg/kg) was found to be 17%. Further, in the assay on male ICR-mice (setting [4]), the “Sleep prolonging rate (%)” value is 82%.
`O=C(O)[C@@H](Cc1c[nH]c2ccccc12)Nc1ncnc2c1ncn2[C@@H]1O[C@H](CO)C(O)C1O` (stereo partly drawn) [Example 111, N-(6-adenosine)-(L)-tryptophan]: in the assay with mice (5 mg/kg), the “Sleep rate (%)” value amounted to 14%. The “Sleep prolonging rate (%)” value in the assay with male ICR-mice (setting [4]) came to 69%.
As for `O=C(O)C(Cc1c[nH]c2ccc(O)cc12)Nc1ncnc2c1ncn2[C@@H]1O[C@H](CO)C(O)C1O` (stereo partly drawn) [Example 115, N-(6-adenosine)-5-hydroxy tryptophan], in the assay with mice (5 mg/kg), the “Sleep rate (%)” value is given as 17%. Besides, the “Sleep prolonging rate (%)” value in the assay on male ICR-mice (setting [4]) is reported as 60%.
With `O=C(O)[C@@H](CO)Nc1ncnc2c1ncn2[C@@H]1O[C@H](CO)C(O)C1O` (stereo partly drawn) [Example 124, N-(6-adenosine)-(L)-serine], in the assay with mice (5 mg/kg, listed as N-(6-adenosine)-(L)-serine), the “Sleep rate (%)” value amounted to 29%. Besides, in the assay with male ICR-mice (intraperitoneal, 5 mg/kg, 38 mg/kg sodium pentobarbital 30 min later, listed as N-(6-adenosine)-(L)-serine), the “Sleep prolonging rate (%)” value is 15%.
As for `O=C(O)[C@@H](CO)Nc1ncnc2c1ncn2[C@@H]1O[C@H](CO)C(O)C1O` (stereo partly drawn) [Example 125, N-(6-adenosine)-(D)-serine], the “Sleep rate (%)” value in the assay on mice (5 mg/kg, listed as N-(6-adenosine)-(D)-serine) was 14%. In the assay on male ICR-mice (intraperitoneal, 5 mg/kg, 38 mg/kg sodium pentobarbital 30 min later, listed as N-(6-adenosine)-(D)-serine), the “Sleep prolonging rate (%)” value amounted to 0%.
